Assay results as given in patent US20200222370A1, “PHARMACEUTICAL COMPOSITION” (KOWA COMPANY, LTD., priority 2017, published 2020).

Assays:
[1] = pH value of pemafibrate itself dissolved or dispersed in purified water; type: physicochemical; settings: pemafibrate 5 μg/mL as free form in purified water
Experimental: Herein, the “a pH value of a solution produced by dissolving or dispersing a pharmaceutical composition in water” means a value obtained by measuring at 25° C. a pH of a solution produced by dissolving or dispersing a pharmaceutical composition containing pemafibrate, a salt thereof or a solvate thereof in water so that the concentration of pemafibrate in terms of a free form is 5 μg/mL. Incidentally, purified water is used as water. First a measurement of a pH value of pemafibrate itself was performed. To be more specific, pemafibrate was dissolved or dispersed in purified water so that the concentration of pemafibrate as the free form was 5 μg/mL. Then, a pH value of the obtained solution at 25° C. was measured.

[2] = Stability of pemafibrate under different pH environments (buffer solutions, 80° C., 96 hours, HPLC); type: physicochemical; settings: 5 μg/mL, 96 hours later
Experimental: In Test Examples below, measurement was performed through HPLC using an ODS column as a column and an ultraviolet spectrophotometer as a detector. Additionally, the following studies were conducted in order to evaluate the stability of pemafibrate under different pH environments. Namely, buffer solutions were prepared in accordance with the descriptions about buffer solutions of U.S.Pharmacopeia (2013 Edition) and Japanese Pharmacopeia (17th Edition), so as to have the following pH values at 25° C.: pH 2.0 (hydrochloric acid buffer solution including potassium chloride); pH 3.0 and 4.0 (Acid phthalate buffer solution including potassium biphthalate); pH 6.0 and 7.0 (phosphate buffer solution); pH 8.0, 9.0 and 10.0 (Alkaline borate buffer solution including boric acid, potassium chloride and sodium hydroxide); pH 11.0 (Ammonium buffer solution including ammonia and ammonium chloride); and pH 12.0 (phosphate buffer solution). In each of the buffer solutions, pemafibrate was dissolved or dispersed so that its amount as the free form was 5 μg/mL, thereby producing liquid samples having different pH conditions. The liquid samples were stored at 80° C. for 96 hours. The amounts of pemafibrate-derived decomposition products (related substances) in the liquid samples after storage for 96 hours were evaluated through the following method. Specifically, acetonitrile was added to each of the liquid samples, and then they were measured by using HPLC. The sum of peak areas derived from related substances on the chromatogram was calculated in terms of the ratio (%) to the sum of peak areas derived from pemafibrate and related substances, and the ratio was defined as the “Total amount (%) of related substances”.

pH value (25° C.) [1]: ~5.9
Total amount (%) of related substances ([2]; pH 2.0 buffer): 27.1%
Total amount (%) of related substances ([2]; pH 3.0 buffer): 4.1%
Total amount (%) of related substances ([2]; pH 4.0 buffer): 1.1%
Total amount (%) of related substances ([2]; pH 6.0 buffer): 1.3%
Total amount (%) of related substances ([2]; pH 7.0 buffer): 0.9%
Total amount (%) of related substances ([2]; pH 8.0 buffer): 0.4%
Total amount (%) of related substances ([2]; pH 9.0 buffer): <0.1%
Total amount (%) of related substances ([2]; pH 10.0 buffer): 0.1%
Total amount (%) of related substances ([2]; pH 11.0 buffer): 0.1%
Total amount (%) of related substances ([2]; pH 12.0 buffer): <0.1%
SMILES: CC[C@@H](Oc1cccc(CN(CCCOc2ccc(OC)cc2)c2nc3ccccc3o2)c1)C(=O)O [pemafibrate, (2R)-2-[3-([1,3-Benzoxazol-2-yl[3-(4-methoxyphenoxy)propyl]amino]methyl)phenoxy]butanoic acid]
